Results from patent US12533357B2, “Treatment for acute myeloid leukemia or myelodysplastic syndrome” (UNIVERSITY HEALTH NETWORK, priority 2019, dated 2026).

Key:
OCI-AML3 = assay: In vitro cytotoxicity (IC50) assay, alamarBlue; format: cell-based; conditions: OCI-AML3, AML M4
Procedure: (§1) Cells were seeded in triplicate at 10,000 per 80 uL, into 96-well plates 24 hours before compound overlay and cultured at 37° C. and 5% CO2. Compound (I) was prepared as a 10 mM stock in 100% DMSO and diluted with RPMI 1640 cell growth medium containing 10% FBS such that the final concentrations ranged from 50 pM to 15 uM. Aliquots (20 uL) from each concentration were overlaid to 80 uL of pre-seeded cells to achieve final concentrations of 10 pM to 3 uM. After 3 days, cell viability in each well was assessed by alamarBlue assay according to the manufacturer's instruction (ThermoFisher Scientific). Absorbance was read at 570 nm using a SpectraPlus microplate reader (Molecular Devices Corporation). alamarBlue absorbance values were adjusted by subtracting the average of the baseline readings from untreated cells assessed one day after cell seeding. The percentage (%) of relative inhibition of cell viability was calculated by comparing to DMSO-treated cells. IC50s were calculated using GraphPad PRISM software (GraphPad Software Inc.).

KOPN-8 = assay: In vitro cytotoxicity (IC50) assay, alamarBlue; format: cell-based; conditions: KOPN-8, B-ALL
Procedure: as §1

HL-60 = assay: In vitro cytotoxicity (IC50) assay, alamarBlue; format: cell-based; conditions: HL-60, AML M2
Procedure: as §1

OCI-LY18 = assay: In vitro cytotoxicity (IC50) assay, alamarBlue; format: cell-based; conditions: OCI-LY18, NHL GCB-DLBCL
Procedure: as §1

RS4;11 = assay: In vitro cytotoxicity (IC50) assay, alamarBlue; format: cell-based; conditions: RS4;11, B-ALL
Procedure: as §1

DAUDI = assay: In vitro cytotoxicity (IC50) assay, alamarBlue; format: cell-based; conditions: NHL B-Cell Burkitt
Procedure: as §1

REH = assay: In vitro cytotoxicity (IC50) assay, alamarBlue; format: cell-based; conditions: B-ALL
Procedure: as §1

OCI-AML4 = assay: In vitro cytotoxicity (IC50) assay, alamarBlue; format: cell-based; conditions: OCI-AML4, AML M4
Procedure: as §1

OCI-LY3 = assay: In vitro cytotoxicity (IC50) assay, alamarBlue; format: cell-based; conditions: OCI-LY3, NHL ABC-DLCBL
Procedure: as §1

TF-1 = assay: In vitro cytotoxicity (IC50) assay, alamarBlue; format: cell-based; conditions: TF-1, AML M6
Procedure: as §1

RAJI = assay: In vitro cytotoxicity (IC50) assay, alamarBlue; format: cell-based; conditions: NHL B-Cell Burkitt
Procedure: as §1

SU-DHL-8 = assay: In vitro cytotoxicity (IC50) assay, alamarBlue; format: cell-based; conditions: SU-DHL-8, NHL DLBCL
Procedure: as §1

K-562 = assay: In vitro cytotoxicity (IC50) assay, alamarBlue; format: cell-based; conditions: K-562, CML
Procedure: as §1

JURKAT = assay: In vitro cytotoxicity (IC50) assay, alamarBlue; format: cell-based; conditions: T-ALL
Procedure: as §1

THP-1 = assay: In vitro cytotoxicity (IC50) assay, alamarBlue; format: cell-based; conditions: THP-1, AML M5
Procedure: as §1

NALM-6 = assay: In vitro cytotoxicity (IC50) assay, alamarBlue; format: cell-based; conditions: NALM-6, B-ALL
Procedure: as §1

OCI-AML2 = assay: In vitro cytotoxicity (IC50) assay, alamarBlue; format: cell-based; conditions: OCI-AML2, AML M4
Procedure: as §1

OCI-LY8 = assay: In vitro cytotoxicity (IC50) assay, alamarBlue; format: cell-based; conditions: OCI-LY8, NHL GCB-DLBCL
Procedure: as §1

NALM-16 = assay: In vitro cytotoxicity (IC50) assay, alamarBlue; format: cell-based; conditions: NALM-16, B-ALL
Procedure: as §1

OCI-LY10 = assay: In vitro cytotoxicity (IC50) assay, alamarBlue; format: cell-based; conditions: OCI-LY10, NHL ABC-DLBCL
Procedure: as §1

NB4 = assay: In vitro cytotoxicity (IC50) assay, alamarBlue; format: cell-based; conditions: NB4, AML M3
Procedure: as §1

[1] = Phase 1 dose-escalation study (NCT03187288); format: in vivo, human
Procedure: This study (NCT number: NCT03187288) is a multi-center, phase 1, dose-escalation trial designed to assess the safety, tolerability, pharmacokinetics, and clinical benefit of treatment with Compound (I) fumarate administered orally over a range of doses in patients with acute myeloid leukemia (AML) or myelodysplastic syndrome (MDS) that is relapsed or refractory to current treatment or for which no curative therapy exists.
Results: 9 patients with relapsed or refractory AML were treated with escalating doses of Compound (I) (64 mg to 128 mg) administered orally once daily. Among them, 3 patients were dosed at 64 mg, 4 patients were dosed at 96 mg, and 2 patients were dosed at 128 mg. Of six patients evaluable for response, two (33%) achieved complete remission (CR), and 3 patients (50%) had stable disease (with one patient having a 78% reduction in marrow blast count). The dose limiting toxicity (DLT) was determined to be colitis at the 128 mg dose level. […] However, only 4 patients were enrolled at the 96 mg dose level before the study was paused for enrollment and was amended.

[2] = test system: complex karyotype (CK) AML cell lines; assay: In vitro combination with standard of care agents; format: cell-based; conditions: in combination with Venetoclax (Bcl2 inhibitor) and 5-Azacytidine; multiple CK AML cell lines in vitro
cancer cells = assay: Compound (I) treatment of cancer cells (FIG. 1); format: cell-based
Procedure: as §1

[3] = Homo sapiens, 72 h, 3 days, read-out: Compound (I) IC50

For `COc1ccc2c(c1)[C@]1(C[C@H]1c1ccc3c(/C=C/c4ccc(CN5C[C@@H](C)O[C@@H](C)C5)cc4)n[nH]c3c1)C(=O)N2` [Compound (I), (1R,2S)-2-(3-((E)-4-(((2S,6R)-2,6-dimethylmorpholino)methyl)styryl)-1H-indazol-6-yl)-5′-methoxyspiro[cyclopropane-1,3′-indolin]-2′-one], the “Response to Compound (I)” value (OCI-AML3) was “mitotic defects +”, the IC50 (KOPN-8; [3]) was 0.7 nM and the “Response to Compound (I)” value (KOPN-8) was “death”. The “Response to Compound (I)” value (HL-60) was “death”, the IC50 (HL-60; [3]) was 8.4 nM and the “Response to Compound (I)” value (OCI-LY18) was “mitotic defects +”. For the same compound, the “Response to Compound (I)” value (RS4;11) was “mitotic defects +”, the IC50 (DAUDI; [3]) was 0.2 nM and the “Response to Compound (I)” value (DAUDI) was “death”. The “Response to Compound (I)” value (REH) was “death”, the IC50 (REH; [3]) was 5.1 nM and the “Response to Compound (I)” value (OCI-AML4) was “mitotic defects +”. For the same compound, the “Response to Compound (I)” value (OCI-LY3) was “mitotic defects +”, the IC50 (TF-1; [3]) was 2.2 nM and the “Response to Compound (I)” value (TF-1) was “death”. The IC50 (RAJI; [3]) was 0.1 nM, the “Response to Compound (I)” value (RAJI) was “death” and the IC50 (SU-DHL-8; [3]) was 12 nM. The “Response to Compound (I)” value (SU-DHL-8) was “death”, the “Response to Compound (I)” value (K-562) was “mitotic defects +” and the IC50 (JURKAT; [3]) was 0.6 nM. For the same compound, the “Response to Compound (I)” value (JURKAT) was “death”, the IC50 (THP-1; [3]) was 1.4 nM and the “Response to Compound (I)” value (THP-1) was “death”. The “Response to Compound (I)” value (NALM-6) was “mitotic defects +”, the “Response to Compound (I)” value (OCI-AML2) was “mitotic defects +” and the “Response to Compound (I)” value (OCI-LY8) was “mitotic defects +”. The “Response to Compound (I)” value (NALM-16) was “mitotic defects +”, the IC50 (OCI-LY10; [3]) was 6.8 nM and the “Response to Compound (I)” value (OCI-LY10) was “death”. For the same compound, the “Response to Compound (I)” value (NB4) was “mitotic defects +”, the “dose limiting toxicity (DLT)” value ([1]; 128 mg dose level, orally once daily) was “colitis” and the “patients with stable disease” value ([1]; 3 of six evaluable patients, 64 mg to 128 mg orally once daily) was 50%. For the same compound, the “effect on outcome of a patient” value ([1]; a patient with CK AML) was “positively affected the outcome”, the “reduction in marrow blast count” value ([1]; one patient with stable disease) was 78% and the “single agent clinical activity” value ([1]; patients with poor risk AML) was “has activity”. The “patients achieving complete remission (CR)” value ([1]; two of six evaluable patients, 64 mg to 128 mg orally once daily) was 33%, the combination activity [2] was “additive/synergistic activity” and the “effect of treatment on cancer cells” value (cancer cells) was “aberrant mitoses leading to death or arrest”.
